This note sets out measurements from patent publication US10065965B2, “Imidazo[1,2-B][1,2,4]triazine derivatives as antiparasitic agents” (GlaxoSmithKline Intellectual Property Development Limited, priority 2015, dated 2018).

≈ marks a conversion by molar mass, not a printed value.

In general, solubility refers to how much of the substance goes into solution per volume. A high value points to a readily soluble substance.

The nature of data set [1]: Assay 2 Trypanosoma cruzi intracellular assay, cytotoxicity against VERO cells. The class given is cell-based. The following applies: African green monkey, Vero cells infected with T. cruzi trypomastigotes, total number of Vero cells, minimum threshold 4.3, read-out: cytotoxicity against VERO cells, pEC50 (converted). As to the method:
Compounds were dispensed into black 384-well assay plates (Corning) by acoustic dispensing (LabCyte ECHO). For potency determinations, ten-point one in three dilution curves were generated, with a top concentration of 50 μM. Vero cells were infected overnight with T. cruzi trypomastigotes in T225 tissue culture flasks at a multiplicity of infection of 5. Next, any remaining free trypomastigotes were washed away with serum free MEM media and the infected Vero cells were harvested by trypsinisation. The infected Vero cells were then plated into 384-well plates containing the compounds to be tested, at 4000 cells per well in MEM media with 1% FCS. After 72 h incubation at 37° C. in presence of 5% CO2, the plates were fixed with 4% formaldehyde for 20 minutes at room temperature and stained with 5 μg/ml Hoechst 33342. The plates were imaged on a Perkin Elmer Operetta high-content imaging system using a 20× objective. Images were analysed using the Columbus system (Perkin Elmer). The image analysis algorithm first identified the Vero nuclei followed by demarcation of the cytoplasm and identification of intracellular amastigotes. This algorithm reported mean number of parasites per Vero cell and total number of Vero cells.

Data set [2] is described as follows: Assay 4 solubility assay, ChemiLuminescent Nitrogen Detection (CLND). Conditions: phosphate buffered saline, pH 7.4, aqueous buffer, kinetic from dmso stock, pH 7.4 PBS, from 10 mM DMSO stock, 1 h at room temperature. It is filed as physicochemical. The procedure, abridged:
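Kinetic solubility: 10 mM DMSO stock diluted 5 µl into 100 µl pH 7.4 PBS, incubated 1 h at room temperature, then filtered. Filtrate quantified by HPLC with chemiluminescent nitrogen detection against ondansetron and caffeine standards; solubility in µM by linear-regression calibration.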

The next data set concerns Leishmania donovani. In words: Assay 5 Leishmania donovani intracellular assay (eGFP amastigotes in THP-1 cells). The class given is cell-based. The following applies: 96 h, read-out: pEC50 value against Leishmania donovani (converted). As to the method:
Compounds were dispensed into black 384-well assay plates (Greiner) by acoustic dispensing (LabCyte ECHO). For potency determinations, eleven-point, one in three dilution curves were generated, with a top concentration of 50 μM. THP-1 human monocytes cells were dispensed in T225 tissue culture flasks and differentiated using 30 nM of PMA, after 24 hours they were infected overnight using Leishmania donovani expressing Green Fluorescent Protein (eGFP) amastigotes in the same T225 tissue culture flasks at a multiplicity of infection of 10. Next, any remaining free amastigotes were washed away with PBS and the infected THP-1 cells were harvested by trypsinisation. The infected cells were then plated into 384-well plates containing the compounds to be tested, at 3000 cells per well in RPMI media with 2% FBS and 25 mM Sodium bicarbonate. After 96 h incubation at 37° C. in presence of 5% CO2, the plates were fixed with 4% formaldehyde for 30 minutes, washed with PBS and stained with 0.1 mg/mL of DAPI for 30 minutes and washed again with PBS. The plates were imaged on a Perkin Elmer Opera high-content imaging system using a 20× air objective with two expositions, one for DAPI stain and other for eGFP. Images were analysed using the Acapella building blocks system (Perkin Elmer). […]

Data set [3] in a line: Assay 5 Leishmania donovani intracellular assay, cytotoxicity against THP-1 cells. The class given is cell-based. The following applies: human, total number of THP-1 cells, minimum threshold 4.3, read-out: cytotoxicity against THP-1 cells, pEC50 value (converted). The method in brief:
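PMA-differentiated THP-1 cells infected overnight with eGFP L. donovani amastigotes (MOI 10), then exposed 96 h at 37 °C to 11-point 1:3 dilutions from 50 μM. After fixation and DAPI staining, high-content imaging scored parasites per cell, % infected cells and total THP-1 count.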

For `O=C(Nc1ccc(F)c(-c2cn3nc(N4CCOCC4)cnc3n2)c1)N1CCCC1` [Example 1, N-(4-fluoro-3-(2-morpholinoimidazo[1,2-b][1,2,4]triazin-6-yl)phenyl)pyrrolidine-1-carboxamide], the EC50 at 72 h in data set [1] was > 50.1 µM. In addition, the solubility at 1 h in data set [2] is 100 to 416 µM (≈ 41.1 to 171 µg/mL). In addition, in the data set on Leishmania donovani, the EC50 is 0.158 µM. Moreover, the EC50 at 96 h in data set [3] was > 50.1 µM.
